Test results as given in ChEMBL document CHEMBL1201862, “PubChem BioAssay data set” (2004).
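Five concentrations, 48 hours, 96-well plates. GI50 = concentration required for 50% inhibition of growth.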 Calls of active or inactive are those of the source. No stated cut-off is given here; in the data, active = GI50 up to about 1.1 µM and inactive = higher.

How the values were obtained:
Assay in all cases: NCI tumour cell line growth inhibition, 48 h
HT-29 = system: HT-29
SN12C = system: SN12C
MOLT-4 = system: MOLT-4
KM12 = system: KM12
IGROV-1 = system: IGROV-1
SF-295 = system: SF-295
COLO 205 = system: COLO 205
SW-620 = system: SW-620
CCRF-CEM = system: CCRF-CEM
ACHN = system: ACHN
NCI-H460 = system: NCI-H460
HOP-92 = system: HOP-92
DMS-114 = system: DMS-114
SF-268 = system: SF-268
OVCAR-4 = system: OVCAR-4
SNB-19 = system: SNB-19
KM-20L2 = system: KM-20L2
DMS-273 = system: DMS-273
HL-60 = system: HL-60
UO-31 = system: UO-31
SK-OV-3 = system: SK-OV-3
HCT-15 = system: HCT-15
A498 = system: A498
HOP-18 = system: HOP-18
RPMI-8226 = system: RPMI-8226
LXFL 529 = system: LXFL 529
LOX IMVI = system: LOX IMVI
M19-MEL = system: M19-MEL
SNB-75 = system: SNB-75
NCI-H226 = system: NCI-H226
K562 = system: K562
RXF 393 = system: RXF 393
HCC 2998 = system: HCC 2998
TK-10 = system: TK-10
SNB-78 = system: SNB-78
EKVX = system: EKVX
SF-539 = system: SF-539
OVCAR-5 = system: OVCAR-5
Malme-3M = system: Malme-3M
HOP-62 = system: HOP-62
UACC-62 = system: UACC-62
SK-MEL-28 = system: SK-MEL-28
OVCAR-3 = system: OVCAR-3
NCI-H23 = system: NCI-H23
U-251 = system: U-251
UACC-257 = system: UACC-257
786-0 = system: 786-0
DLD-1 = system: DLD-1
SR = system: SR
XF498 = system: XF498
SK-MEL-2 = system: SK-MEL-2
CAKI-1 = system: CAKI-1
SK-MEL-5 = system: SK-MEL-5
M14 = system: M14
A549 = system: A549
HCT-116 = system: HCT-116
OVCAR-8 = system: OVCAR-8
RXF 631 = system: RXF 631
NCI-H522 = system: NCI-H522

Measured: GI50

Cc1cc2c(cc1Br)C1(C)CCC(C)C1(C)O2 (centres undefined)
36.6 µM: HCT-15
inactive: HT-29 30.6 µM | SN12C 24.9 µM | MOLT-4 17.9 µM | KM12 31.6 µM | IGROV-1 47.6 µM | SF-295 17.3 µM | COLO 205 16.3 µM | SW-620 40.1 µM | CCRF-CEM 22.1 µM | ACHN 31.2 µM | NCI-H460 23.7 µM | HOP-92 20.9 µM | DMS-114 22 µM | SF-268 34 µM | OVCAR-4 39.8 µM | SNB-19 36 µM | KM-20L2 32.3 µM | DMS-273 19.6 µM | HL-60 13.4 µM | UO-31 32.4 µM | SK-OV-3 53.3 µM | A498 34.6 µM | HOP-18 30.1 µM | RPMI-8226 14 µM | LXFL 529 57.7 µM | LOX IMVI 18.6 µM | M19-MEL 25.3 µM | SNB-75 36.6 µM | NCI-H226 19.8 µM | K562 17.3 µM | RXF 393 15.7 µM | HCC 2998 43 µM | TK-10 > 100 µM | SNB-78 24 µM | EKVX 55.6 µM | SF-539 > 100 µM | OVCAR-5 23.8 µM | Malme-3M 16.9 µM | HOP-62 30.3 µM | UACC-62 44 µM | SK-MEL-28 38.4 µM | OVCAR-3 21.7 µM | NCI-H23 25.5 µM | U-251 21.8 µM | UACC-257 30.5 µM | 786-0 23.1 µM | DLD-1 48.8 µM | SR 13 µM | XF498 22.5 µM | SK-MEL-2 18.6 µM | CAKI-1 56 µM | SK-MEL-5 29.1 µM | M14 32.3 µM | A549 36.5 µM | HCT-116 14 µM | OVCAR-8 29.6 µM

NCC(=O)NC(CCCC(NC(=O)CN)P(=O)(O)O)P(=O)(O)O (centres undefined)
inactive: HT-29 > 100 µM | MOLT-4 > 100 µM | KM12 > 100 µM | IGROV-1 > 100 µM | SF-295 > 100 µM | CCRF-CEM > 100 µM | ACHN > 100 µM | NCI-H460 > 100 µM | HOP-92 > 100 µM | DMS-114 > 100 µM | KM-20L2 > 100 µM | DMS-273 > 100 µM | HL-60 > 100 µM | SK-OV-3 > 100 µM | A498 > 100 µM | M19-MEL > 100 µM | NCI-H226 26 µM | RXF 393 > 100 µM | RXF 631 > 100 µM | TK-10 > 100 µM | SNB-78 > 100 µM | EKVX > 100 µM | NCI-H522 > 100 µM | OVCAR-5 > 100 µM | HOP-62 > 100 µM | UACC-62 > 100 µM | SK-MEL-28 > 100 µM | NCI-H23 > 100 µM | U-251 > 100 µM | UACC-257 > 100 µM | SR > 100 µM | M14 > 100 µM | A549 > 100 µM | HCT-116 > 100 µM | OVCAR-8 > 100 µM

Cc1c(C(=O)Nc2ccc(Cl)c(C(F)(F)F)c2)oc2cc(O)ccc2/c1=N\NC(N)=S
inactive: HT-29 > 100 µM | SN12C > 100 µM | MOLT-4 > 100 µM | KM12 > 100 µM | IGROV-1 > 100 µM | SF-295 > 100 µM | COLO 205 > 100 µM | SW-620 > 100 µM | CCRF-CEM > 100 µM | ACHN > 100 µM | NCI-H460 > 100 µM | DMS-114 > 100 µM | SF-268 > 100 µM | OVCAR-4 > 100 µM | SNB-19 > 100 µM | KM-20L2 > 100 µM | DMS-273 > 100 µM | HL-60 > 100 µM | UO-31 > 100 µM | SK-OV-3 > 100 µM | A498 > 100 µM | HOP-18 > 100 µM | RPMI-8226 > 100 µM | LXFL 529 > 100 µM | LOX IMVI > 100 µM | M19-MEL > 100 µM | SNB-75 > 100 µM | NCI-H226 > 100 µM | K562 > 100 µM | RXF 393 > 100 µM | HCC 2998 > 100 µM | TK-10 > 100 µM | SNB-78 > 100 µM | EKVX > 100 µM | SF-539 > 100 µM | NCI-H522 > 100 µM | OVCAR-5 > 100 µM | Malme-3M > 100 µM | HOP-62 > 100 µM | UACC-62 > 100 µM | SK-MEL-28 > 100 µM | OVCAR-3 > 100 µM | NCI-H23 > 100 µM | U-251 > 100 µM | UACC-257 > 100 µM | 786-0 > 100 µM | DLD-1 > 100 µM | SR > 100 µM | XF498 > 100 µM | SK-MEL-2 > 100 µM | CAKI-1 > 100 µM | SK-MEL-5 > 100 µM | M14 > 100 µM | A549 > 100 µM | HCT-116 > 100 µM | OVCAR-8 > 100 µM
> 100 µM: HCT-15
